Laboratory results published in patent EP0326331B1, “Substituted quinolines and cinnolines” (Dow AgroSciences LLC, priority 1988, dated 1989).

What was measured:
Assay type in all cases: in vivo
[1] = test system: melon aphids (Aphis gossypii Glover); test: Mite/insect screen, MA; conditions: percent mortality, SAW, SM & MA RATE 200 PPM; for mortality at 200 ppm: Aphis gossypii, read-out: MA RESULTS %
Procedure, shortened: (§1)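 Activity is expressed as percent mortality at the indicated spray concentrations. Plants are sprayed to runoff on upper and lower leaf surfaces with aqueous dilutions of an acetone/alcohol emulsifiable formulation, then dried for one hour.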

[2] = test system: southern armyworm (Spodopetra eridania Cramer); test: Mite/insect screen, SAW; conditions: percent mortality, SAW, SM & MA RATE 200 PPM; for mortality at 200 ppm: Spodoptera eridania, read-out: SAW RESULTS %
Procedure, shortened: as §1

[3] = test system: Puccinia recondita tritici (leaf rust); test: Test 1 greenhouse foliar spray screen, leaf rust on wheat; conditions: disease control rating, foliar spray on wheat, 400 ppm (+++ at 100 ppm)
[4] = test system: Twospotted spider mites (Tetranychus urticae Koch); test: Mite/insect screen, SM; conditions: percent mortality, SAW, SM & MA RATE 200 PPM; for mortality at 200 ppm: Tetranychus urticae, read-out: SM RESULTS %
Procedure, shortened: as §1

[5] = test system: Botrytis cinerea (gray mold); test: Test 1 greenhouse foliar spray screen, gray mold on grape berries; conditions: disease control rating, spray on grape berries, 400 ppm (+++ at 100 ppm)
[6] = test system: Cercospora beticola (leaf spot); test: Test 1 greenhouse foliar spray screen, leaf spot on sugar beet; conditions: disease control rating, foliar spray on sugar beet, 400 ppm (+++ at 100 ppm)
corn rootworm = test: Mite/insect screen, CRW; conditions: percent mortality, CRW RATE 12.00 PPM; for mortality at 12 ppm: read-out: CRW RESULTS %
Procedure, shortened: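 Each compound, taken up in an emulsifier-containing acetone/alcohol mixture and diluted in water to the stated concentrations, was assessed for percent kill following standard exposure times.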

[7] = test system: Venturia inaequalis (apple scab); test: Test 1 greenhouse foliar spray screen, apple scab on apple seedling; conditions: disease control rating, foliar spray on apple seedling, 400 ppm (+++ at 100 ppm)
[8] = test system: Septoria tritici (leaf blotch); test: Test 1 greenhouse foliar spray screen, leaf blotch on wheat; conditions: disease control rating, foliar spray on wheat, 400 ppm (+++ at 100 ppm)
[9] = test system: Pyricularia oryzae (rice blast); test: whole plant or invertebrate; conditions: disease control rating, foliar spray on rice, 400 ppm (+++ at 100 ppm)
[10] = test system: Erysiphe graminis tritici (powdery mildew); test: Test 1 greenhouse foliar spray screen, powdery mildew on wheat; conditions: disease control rating, foliar spray on wheat, 400 ppm (+++ at 100 ppm)
[11] = test system: Pseudoperonospora cubensis (downy mildew); test: Test 1 greenhouse foliar spray screen, downy mildew on squash; conditions: for DOWN MDEW: disease control rating, foliar spray on squash, 400 ppm (+++ at 100 ppm)

Row | Compound | mortality at 200 ppm [1] | mortality at 200 ppm [2] | LEAF RUST [3] | mortality at 200 ppm [4] | GRAY MOLD [5] | LEAF SPOT [6] | mortality at 12 ppm (corn rootworm) | APPL SCAB [7] | LEAF BLOT [8] | RICE BLAST [9] | POWD MDEW [10] | DOWN MDEW [11] | MA RESULTS % [1] | SAW RESULTS % [2] | SM RESULTS % [4] | CRW RESULTS % (corn rootworm) | activity against downy mildew ([11]; summary statement in the description)
1 | FC(F)(F)c1ccc2c(NCCc3cccs3)ccnc2c1 [Example 153, N-[2-(2-thienyl)ethyl]-7-(trifluoromethyl)-4-quinolinamine] | 0% | 0% | ++ (90-100% control at 400 ppm) | 0% | - (0-19% control at 400 ppm) | - (0-19% control at 400 ppm) | 0% | - (0-19% control at 400 ppm) | - (0-19% control at 400 ppm) | ++ (90-100% control at 400 ppm) | + (20-89% control at 400 ppm) | + (20-89% control at 400 ppm) | – | – | – | – | –
2 | Fc1cccc2c(NCCc3nc(-c4ccccc4)cs3)ccnc12 [Example 154, 8-fluoro-N-[2-(4-phenyl-2-thiazolyl)ethyl]-4-quinolinamine] | 0% | 0% | +++ (90-100% control at 100 ppm) | 0% | - (0-19% control at 400 ppm) | + (20-89% control at 400 ppm) | 0% | + (20-89% control at 400 ppm) | + (20-89% control at 400 ppm) | + (20-89% control at 400 ppm) | ++ (90-100% control at 400 ppm) | +++ (90-100% control at 100 ppm) | 0% | 0% | 0% | 0% | particularly excellent activity
3 | Clc1cccc2c(NCCc3cccc4ccccc34)ccnc12 [Example 155, 8-chloro-N-[2-(1-naphthyl)ethyl]-4-quinolinamine] | 0% | 0% | - (0-19% control at 400 ppm) | 0% | - (0-19% control at 400 ppm) | - (0-19% control at 400 ppm) | 0% | - (0-19% control at 400 ppm) | - (0-19% control at 400 ppm) | + (20-89% control at 400 ppm) | - (0-19% control at 400 ppm) | +++ (90-100% control at 100 ppm) | – | – | – | – | –
4 | Clc1cccc2c(NCCc3ccc4ccccc4c3)ccnc12 [Example 156, 8-chloro-N-[2-(2-naphthyl)ethyl]-4-quinolinamine] | 0% | 0% | + (20-89% control at 400 ppm) | 0% | - (0-19% control at 400 ppm) | - (0-19% control at 400 ppm) | 0% | - (0-19% control at 400 ppm) | - (0-19% control at 400 ppm) | + (20-89% control at 400 ppm) | - (0-19% control at 400 ppm) | +++ (90-100% control at 100 ppm) | 0% | 0% | 0% | 0% | –
